From patent publication US20040242459A1 (priority 2001, published 2004)
Marks after values point to notes of the source that are not given here.

How the values were obtained:
[1] = tested on: adjuvant-induced arthritis in female Lewis rats; conditions: for Secondary Foot Volume % Inhibition Compared to Vehicle Day 21-0 / Change in Secondary Foot Volume Day 21-0 / Change in Secondary Foot Volume Day 14-0 / Secondary Foot Volume % Inhibition Compared to Vehicle Day 14-0: contralateral paw; for Change in Secondary Foot Volume Day 21-0: mean, SD wrapped to next line; for Change in Secondary Foot Volume Day 14-0 / Change in Primary Foot Volume Day 4-0 / change in body weight Day 21-0 / change in body weight Day 14-0: p.o. q.d.; for Change in Secondary Foot Volume Day 14-0 / Change in Primary Foot Volume Day 4-0 / change in body weight Day 14-0: Compounds 1, 2, 4, 6 30 mg/kg/day; for Change in Secondary Foot Volume Day 14-0 / Change in Primary Foot Volume Day 4-0: Compound 3 50, Compound 5 100, indomethacin 2; for Change in Secondary Foot Volume Day 14-0 / Change in Primary Foot Volume Day 21-0 / Change in Primary Foot Volume Day 4-0 / Change in Primary Foot Volume Day 14-0 / radiographic total scores on day 21, Primary (injected) paw / radiographic total scores on day 21, Secondary (contralateral) Paw / change in body weight Day 21-0 / change in body weight Day 14-0 / Spleen / Thymus (mg) / Thymus: mean ± SD; for Secondary Foot Volume % Inhibition Compared to Vehicle Day 14-0 / Primary Foot Volume % Inhibition Compared to Vehicle Day 4-0 / Primary Foot Volume % Inhibition Compared to Vehicle Day 14-0 / Change in Primary Foot Volume Day 14-0: same doses p.o. q.d.; for radiographic total scores on day 21, Primary (injected) paw / radiographic total scores on day 21, Secondary (contralateral) Paw: maximum score per foot 26; for change in body weight Day 21-0: indomethacin 2 mg/kg/day; for change in body weight Day 14-0: Compound 3 50, Compound 5 100, indomethacin 2 mg/kg/day; for body weight gain compared with vehicle-treated animals: prophylactic, Compound 1 30 mg/kg q.d.; for Spleen / Thymus (mg) / Thymus: weight at necropsy, day of euthanasia 21 (Compound 1, indomethacin) or 15 (Compounds 2-6); for prevention of swelling of primary or secondary paws: up to day 14, rats then euthanized
Description: Nine groups of 10 rats each were injected with an emulsion containing 0.5 mg of Mycobacterium butyricum in 0.1 ml of light mineral oil, and a negative control group of 10 rats was not injected with adjuvant. Body weights, primary (injected) and contralateral (non-injected) paw volumes (determined by mercury displacement plethysmography) and lateral radiographs (obtained under Ketamine and Xylazine anesthesia) were determined before (day-1) and at various time points including 21 days following adjuvant injection. The rats were anesthetized with an intramuscular injection of 0.03-0.1 ml of a combination of Ketamine (87 mg/kg) and Xylazine (13 mg/kg) for radiographs and injection of adjuvant. Lateral to medial radiographs were made of both hind paws on days 0 and 21 for using the Faxitron (45 kVp, 30 seconds or 45 kVp, 1 second) and Kodak X-OMAT TL film, and were developed in an automatic processor. […] Specific criteria were used to establish the numerical grade of severity for each radiographic change. The maximum possible score per foot was 26. Compounds or vehicle were administered prophylactically beginning post injection of adjuvant and continuing for 21 days. The Compounds were prepared weekly, refrigerated in the dark until used, and vortex mixed immediately prior to administration. […] The liver, thymus and spleens of all rats were removed and weighed and both hind paws were removed and radiographed.
Two-factor (‘treatment’ and ‘time’) analysis of variance with repeated measures on ‘time’ were applied to the percent changes for body weight and foot volumes and to the rank-transformed radiographic total scores. A post hoc Dunnett's test was conducted to compare the effect of treatments to vehicle. A one-way analysis of variance was applied to the thymic and spleen weights followed by the Dunnett's test to compare the effect of treatments to vehicle.
Compounds or vehicle (0.5% Methocel in sterile water) were administered by oral gavage once daily for 21 days following induction of arthritis in female Lewis rats via the sub plantar injection of 0.1 ml of light mineral oil containing 0.5 mg of Mycobacterium butyricum. Control animals were not injected with adjuvant. Body weights were measured 1 day prior to (i.e. day 0) and at 14 and 21 days post induction of arthritis. The data in Table 1 represent the mean increase or decrease in body weight ±1 standard deviation for groups of 9 to 10 animals.
Compounds or vehicle (0.5% Methocel in sterile water) were administered by oral gavage once daily for 21 days following induction of arthritis in female Lewis rats via the sub plantar injection of 0.1 ml of light mineral oil containing 0.5 mg of Mycobacterium butyricum. Control animals were not injected with adjuvant.
(§1) Injected foot volumes were measured by mercury displacement plethysmography prior to induction of arthritis, and on days 4, 14 and 21 post induction of arthritis. The data represent the mean increase in foot volume ±1 standard deviation for groups of 9 to 10 animals. The extent of paw swelling in compound-treated animals was compared to the mean of that in the vehicle-treated group, and percentage inhibition was calculated for each dose level of compound.
as §1, with “Contralateral foot” for “Injected foot”, “prior to,” for “prior to induction of arthritis,”, “and at” for “and on”, “days” for “days 4,”
[…] Data represent the mean weights of organs in mg ±1 standard deviation for groups of 9 to 10 animals.
Total radiographic scores were derived from examination of lateral radiographs obtained prior to, and on day 21 post induction of arthritis.

[2] = tested on: PPAR-α, PPAR-γ and PPAR-δ; assay: Classification of ligands according to their PPAR activity (Table A); parameters: species or system human; conditions: classification based on IC50 and EC50 data of Table B
[3] = molecular target: T1, recombinant human PPARδ (GST-PPARδ) (Homo sapiens, UniProt Q03181); assay: Scintillation Proximity Assay, displacement of [3H2]Compound B from PPARδ; assay type: binding; conditions: SPA, radioligand
T1 construct: The full length human cDNAs for PPARδ and PPARα were subcloned into the pGEX-KT expression vector; made in house; host or cells: E. coli
T1 sequence (Q03181 1-441): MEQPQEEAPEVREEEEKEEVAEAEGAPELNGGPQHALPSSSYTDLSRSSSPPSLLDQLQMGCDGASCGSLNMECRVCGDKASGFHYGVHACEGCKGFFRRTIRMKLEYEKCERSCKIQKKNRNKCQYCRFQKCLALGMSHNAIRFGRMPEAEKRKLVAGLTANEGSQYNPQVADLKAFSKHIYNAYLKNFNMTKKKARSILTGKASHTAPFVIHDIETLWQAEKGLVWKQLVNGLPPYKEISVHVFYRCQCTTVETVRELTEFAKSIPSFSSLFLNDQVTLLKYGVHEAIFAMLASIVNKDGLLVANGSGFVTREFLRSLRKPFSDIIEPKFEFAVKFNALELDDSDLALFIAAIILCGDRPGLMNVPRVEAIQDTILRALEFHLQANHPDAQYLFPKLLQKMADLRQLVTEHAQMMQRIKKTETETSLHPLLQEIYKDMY
From the text: As an approach to identifying human PPAR agonists, a Scintillation Proximity Assay was used to characterize PPAR-γ, PPAR-δ, and PPAR-α ligands.
Human PPARγ2, human PPARδ and human PPARα were expressed as GST-fusion proteins in E. coli. The full length human cDNA for PPARγ 2 was subcloned into the pGEX-2 T expression vector (Amersham Pharmacia Biotech, Inc.). The full length human cDNAs for PPARδ and PPARα were subcloned into the pGEX-KT expression vector (Amersham Pharmacia Biotech, Inc.). E. coli containing the respective plasmids were propagated, induced, and harvested by centrifugation. The resuspended pellet was broken in a French press and debris removed by centrifugation. Recombinant human PPAR receptors were purified by affinity chromatography on glutathione sepharose. After application to the column, and one wash, receptor was eluted with glutathione. Glycerol (10%) was added to stabilize the receptor and aliquots were stored at −80° C.
After incubation for ˜16 h at 15° C. with shaking, the assay plates were counted in a Packard Topcount with quench correction.

[4] = Compound 1 30 mg/kg/day, indomethacin 2 mg/kg/day p.o. q.d.
[5] = day 21, 30 mg/kg q.d. prophylactic
[6] = injected paw, Compound 1 30 mg/kg/day, indomethacin 2 mg/kg/day p.o. q.d.

Compound	Secondary Foot Volume % Inhibition Compared to Vehicle Day 21-0 [1, 4] [%]	Change in Secondary Foot Volume Day 21-0 [1, 4] [µL]	Change in Secondary Foot Volume Day 14-0 [1]	Secondary Foot Volume % Inhibition Compared to Vehicle Day 14-0 [1] [%]	radiographic total scores of contralateral paws compared with vehicle ([1]; day 21)	Change in Primary Foot Volume Day 21-0 [1, 6]	Change in Primary Foot Volume Day 4-0 ([1]; injected paw)	Primary Foot Volume % Inhibition Compared to Vehicle Day 4-0 ([1]; injected paw) [%]	Primary Foot Volume % Inhibition Compared to Vehicle Day 14-0 ([1]; injected paw) [%]	Change in Primary Foot Volume Day 14-0 ([1]; injected paw)	radiographic total scores on day 21, Primary (injected) paw [1, 4]	radiographic total scores on day 21, Secondary (contralateral) Paw [1, 4]	change in body weight Day 21-0 ([1]; Compound 1 30 mg/kg/day)	change in body weight Day 14-0 [1]	body weight gain compared with vehicle-treated animals [1]	degree of thymic involution compared with vehicle ([1]; rat, in vivo)	Spleen [1] [mg]	Thymus (mg) [1]	prevention of swelling of primary or secondary paws [1]	Thymus [1] [mg]	also measured
Cc1cc(SCc2sc(-c3ccc(C(F)(F)F)cc3)nc2C)ccc1OCC(=O)O.[Na+] [Compound 1]	77.8	246.0	38 ± 161^++ μL	92.4	significantly less	2612 ± 909 µL	1510 ± 523^+ μL	23.1	30.0	1530 ± 659**^++ μL	13.0 ± 7.2	1.8 ± 3.3^++	2.9 ± 7.4**^++ grams	1.9 ± 6.6**^++ grams	gained more weight than did vehicle-treated animals	less severe	601.0 ± 52.8	275.0 ± 50.4**^++ mg			swelling of the contralateral (secondary) paw [1, 5]: inhibited the day 21 swelling of the contralateral (secondary) paw; swelling of the primary (injected) paw [1, 5]: did not affect the swelling of the primary (injected) paw; Liver (mg) ([1]; rat, in vivo): 1209.0 ± 129.0**^++ mg; liver weight compared with vehicle ([1]; rat, in vivo): significantly heavier
Cc1cccc(Nc2cc(Cl)nc(SCC(=O)O)n2)c1C [Compound 4, WY-14643, reference compound]			704 ± 421 µL	22.1			2133 ± 266 µL	0		2585 ± 733 µL				−15.2 ± 6.8 grams			665.1 ± 69.8		failed to prevent swelling of either the primary or secondary paws	146.8 ± 33.4	PPAR Activity [2]: Alpha Agonist
CC(C)OC(=O)C(C)(C)Oc1ccc(C(=O)c2ccc(Cl)cc2)cc1 [Compound 5, Fenofibrate, reference compound]			824 ± 186 µL				1421 ± 212^+ μL			1945 ± 415 µL				−7.6 ± 5.3 grams			644.4 ± 159.2		failed to prevent swelling of either the primary or secondary paws	155.3 ± 27.8	
CN(CCOc1ccc(CC2SC(=O)NC2=O)cc1)c1ccccn1 (stereo not drawn) [Compound 6, Rosiglitazone, reference compound]														0.4 ± 6.4**^++ grams			634.5 ± 91.4		failed to prevent swelling of either the primary or secondary paws	187.8 ± 50.4	PPAR Activity [2]: Gamma Agonist
CCCc1c(OCCCSc2ccc(CC(=O)O)cc2Cl)ccc2c(C(F)(F)F)noc12 [Compound B, 3-chloro-4-(3-(7-propyl-3-trifluoromethyl-6-benz-[4,5]-isoxazoloxy)propylthio)phenylacetic acid, reference compound]																					Kd [3]: ~1 nM
COc1ccc2c(c1)c(CC(=O)O)c(C)n2C(=O)c1ccc(Cl)cc1 [Indomethacin, indomethacin, reference compound]	79.2	201.0	275 ± 138^++ μL	62.0	significantly less	499 ± 135^++ μL	798 ± 164^++ μL	59.2	65.7	799 ± 159*^++ μL	4.3 ± 1.3^++	3.3 ± 1.3**^++	11.6 ± 8.0**^++ grams	8.6 ± 7.7**^++ grams	gained more weight than did vehicle-treated animals	less severe	738.0 ± 124.0	426.0 ± 69.0^++ mg			radiographic total scores of primary paws compared with vehicle ([1]; day 21): significantly less; Primary Foot Volume % Inhibition Compared to Vehicle Day 21-0 [1, 6]: 79.2%; Liver ([1]; rat, in vivo): 866.0 ± 86.0 mg
